Measured values published in PubChem BioAssay (NCI).
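Five concentrations, 48 hours, 96-well plates. GI50 = concentration required for 50% inhibition of growth. Definition used: TGI = concentration required for complete inhibition of growth.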

How the values were obtained:
Test in all cases: NCI anticancer screen, dose series, 48 h
M14 melanoma = tested on: M14 melanoma
SNB-75 CNS = tested on: SNB-75 CNS
NCI-H226 lung = tested on: NCI-H226 lung
UO-31 renal = tested on: UO-31 renal
SN12C renal = tested on: SN12C renal
OVCAR-4 ovarian = tested on: OVCAR-4 ovarian
LOX IMVI melanoma = tested on: LOX IMVI melanoma
ACHN renal = tested on: ACHN renal
SF-539 CNS = tested on: SF-539 CNS
NCI-H460 lung = tested on: NCI-H460 lung

SMILES	GI50 (M14 melanoma) [µM]	TGI (M14 melanoma) [µM]	GI50 (SNB-75 CNS) [µM]	TGI (SNB-75 CNS) [µM]	GI50 (NCI-H226 lung) [µM]	TGI (NCI-H226 lung) [µM]	GI50 (UO-31 renal) [µM]	TGI (UO-31 renal) [µM]	GI50 (SN12C renal) [µM]	TGI (SN12C renal) [µM]	GI50 (OVCAR-4 ovarian) [µM]	TGI (OVCAR-4 ovarian) [µM]	GI50 (LOX IMVI melanoma) [µM]	TGI (LOX IMVI melanoma) [µM]	GI50 (ACHN renal) [µM]	TGI (ACHN renal) [µM]	GI50 (SF-539 CNS) [µM]	TGI (SF-539 CNS) [µM]	GI50 (NCI-H460 lung) [µM]	TGI (NCI-H460 lung) [µM]
COc1cc(Nc2ccnc(NCCCNc3ccnc4cc(Cl)ccc34)n2)cc(OC)c1	1.7	3.46	1.31	2.58	2.5	9.16	1.37	2.79	2	7.3	1.58	5.1	1.37	2.82	1.8	3.53	1.58	3.09	1.46	3.77
Clc1ccc(C2SCc3nc4ccccc4n32)cc1Cl (stereo not drawn)	–	27.2	–	14.3	–	41.3	–	–	–	26	–	25.8	–	25.7	–	29.1	–	32.3	–	28.1
O=CC[C@H]1CCc2ccccc2C12CCC(=O)CC2	–	> 100	–	> 100	–	> 100	–	> 100	–	> 100	–	> 100	–	> 100	–	> 100	–	> 100	–	> 100
O=C1c2ccccc2C(=O)c2c1ccc(C1C(=O)c3ccccc3C1=O)c2-c1c(C2C(=O)c3ccccc3C2=O)ccc2c1C(=O)c1ccccc1C2=O	–	> 100	–	> 100	–	> 100	–	> 100	–	> 100	–	> 100	–	> 100	–	> 100	–	> 100	–	> 100
Fc1ccc(Nc2nc3nonc3nc2Nc2ccc(F)cc2)cc1	0.586	10.5	0.399	3.38	0.384	13.9	0.285	1.33	0.301	3.01	0.294	10.9	0.469	4.29	0.399	7.09	0.486	11.6	0.319	10.5
O=[N+]([O-])c1c(Br)sc(Br)c1[N+](=O)[O-]	–	–	1.88	4.99	3.18	13.3	1.59	3.55	3.12	10.9	1.85	3.62	1.58	3.07	1.64	3.19	2.49	6.35	6.67	28.1
CCc1cccc(C(C)C)c1NC(=O)C(=O)C(CC(=O)Nc1ccc(Cl)c(Cl)c1)C(=O)OC (stereo not drawn)	–	> 100	–	> 100	–	> 100	–	> 100	–	> 100	–	> 100	–	> 100	–	> 100	–	> 100	–	> 100
Nc1nc(-c2ccc(F)cc2)c(-c2ccc3ncccc3n2)s1	> 25	> 25	5.04	> 25	11.8	> 25	4.68	> 25	10.1	> 25	16.6	> 25	18	> 25	8.33	> 25	14.4	> 25	8.7	> 25
C1=CC=C2NCCCNC3=CC=CC=CC3=NCCCN=C2C=C1	–	> 100	–	> 100	–	> 100	–	> 100	–	> 100	–	> 100	–	> 100	–	> 100	–	> 100	–	> 100
COc1cc(OC)c(C2CC=Cc3c(OC)cc(OC)c(OC)c32)cc1OC (stereo not drawn)	–	> 100	–	> 100	–	> 100	–	> 100	–	> 100	–	> 100	–	> 100	–	> 100	–	> 100	–	> 100
O=C(CC1(O)C(=O)Nc2c(Cl)cc(Cl)cc21)c1cccc2ccccc12 (stereo not drawn)	–	30.5	–	33.1	–	31.1	–	–	–	34	–	25.4	–	32.5	–	30.8	–	32.4	–	31.1
COc1cc(OC)c(/C=C/c2cnc3ccccc3n2)c(OC)c1	–	> 10	–	> 10	–	> 10	–	1.56	–	> 10	–	> 10	–	> 10	–	> 10	–	> 10	–	> 10
COc1cc2c(cc1Nc1nc(Nc3ccsc3C(N)=O)c3cc[nH]c3n1)N(C(=O)CN(C)C)CCC2(C)C	1.43	5.68	2.7	5.9	0.763	4.92	1.09	4.69	3.13	7.18	3.02	6.59	1.99	6.08	2.56	5.53	3.35	7.05	0.889	5.3
Cc1cccc2c(=O)c3c(sc12)c(NCCNCCO)nc1ccccc13	1.68	3.37	1.15	2.43	1.56	3.32	1.09	2.34	1.54	3.05	1.75	3.48	1.5	2.92	1.5	2.83	1.72	3.12	1.19	2.64
CCC(=O)c1c(NOC2OC(COC(C)=O)C(OC(C)=O)C(OC(C)=O)C2OC(C)=O)nc(OC)n(C)c1=O (stereo not drawn)	–	> 100	–	> 100	–	> 100	–	–	–	> 100	–	> 100	–	> 100	–	> 100	–	> 100	–	> 100
N#CSCC1CC(O)(c2ccccc2)CC(c2ccc(F)cc2)O1 (stereo not drawn)	1.62	3.13	1.44	3.24	–	–	1.82	6.03	1.8	3.47	2.42	8.08	1.7	3.1	2.1	6.43	1.96	3.66	2.08	4.34
